How the values were obtained:
Type in all cases: in vivo
[1] = system: barnyardgrass (Echinochloa crus-galli); test: Test C preemergence; conditions: Echinochloa crus-galli, pre-emergence, preemergence, scale 0 to 100, read-out: Plant response rating, Barnyardgrass
Description: (§1) Seeds of plant species selected from blackgrass (Alopecurus myosuroides), Italian ryegrass (Lolium multiflorum), winter wheat (Triticum aestivum), galium (catchweed bedstraw, Galium aparine), corn (Zea mays), large (Lg) crabgrass (Digitaria sanguinalis), giant foxtail (Setaria faberii), johnsongrass (Sorghum halepense), lambsquarters (Chenopodium album), morningglory (Ipomoea coccinea), yellow nutsedge (Cyperus esculentus), pigweed (Amaranthus retroflexus), ragweed (common ragweed, Ambrosia elatior), soybean (Glycine max), barnyardgrass (Echinochloa crus-galli), oilseed rape (Brassica napus), waterhemp (common waterhemp, Amaranthus rudis), and velvetleaf (Abutilon theophrasti) were planted into a blend of loam soil and sand and treated preemergence with test chemicals formulated in a non-phytotoxic solvent mixture which included a surfactant.
(§2) At the same time, plants selected from these crop and weed species and also chickweed (common chickweed, Stellaria media), kochia (Kochia scoparia), and wild oat (Avena fatua), were planted in pots containing Redi-Earth® planting medium (Scotts Company, 14111 Scottslawn Road, Marysville, Ohio 43041) comprising spaghnum peat moss, vermiculite, wetting agent and starter nutrients and treated with postemergence applications of test chemicals formulated in the same manner. Plants ranged in height from 2 to 18 cm (1- to 4-leaf stage) for postemergence treatments. Treated plants and controls were maintained in a greenhouse for 13 to 15 days, after which time all species were compared to controls and visually evaluated. Plant response ratings, summarized in Table C, are based on a scale of 0 to 100 where 0 is no effect and 100 is complete control. A dash (-) response means no test result.

[2] = system: galium (catchweed bedstraw, Galium aparine); test: Test C preemergence; conditions: Galium, pre-emergence, 336 h, preemergence, scale 0 to 100, read-out: Plant response rating, Galium
Description: as §1, §2

[3] = system: johnsongrass (Sorghum halepense); test: Test C preemergence; conditions: Sorghum halepense, pre-emergence, 336 h, preemergence, scale 0 to 100, read-out: Plant response rating, Johnsongrass
Description: as §1, §2

[4] = system: Italian ryegrass (Lolium multiflorum); test: Test C postemergence; conditions: Lolium multiflorum, post-emergence, 336 h, Postemergence, scale 0 to 100, read-out: Plant response rating, Ryegrass, Italian
Method in brief: (§3)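 Seeds sown in a loam soil and sand blend were treated preemergence; plants in peat-moss/vermiculite medium were sprayed at the 1- to 4-leaf stage (2-18 cm). Chemicals were in a non-phytotoxic surfactant-containing solvent. After 13 to 15 days in a greenhouse, injury was visually rated against controls on a 0-100 scale.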

[5] = system: barnyardgrass (Echinochloa crus-galli); test: Test C postemergence; conditions: Echinochloa crus-galli, post-emergence, Postemergence, scale 0 to 100, read-out: Plant response rating, Barnyardgrass
Method in brief: as §3

[6] = system: blackgrass (Alopecurus myosuroides); test: Test C postemergence; conditions: Alopecurus myosuroides, post-emergence, 336 h, Postemergence, scale 0 to 100, read-out: Plant response rating, Blackgrass
Method in brief: as §3

[7] = system: chickweed (common chickweed, Stellaria media); test: Test C postemergence; conditions: Stellaria media, post-emergence, Postemergence, scale 0 to 100, read-out: Plant response rating, Chickweed
Method in brief: as §3

corn (Zea mays) = test: Test C postemergence; conditions: Zea mays, post-emergence, 336 h, Postemergence, scale 0 to 100
Method in brief: as §3

[8] = system: galium (catchweed bedstraw, Galium aparine); test: Test C postemergence; conditions: Galium, post-emergence, 336 h, Postemergence, scale 0 to 100, read-out: Plant response rating, Galium
Method in brief: as §3

[9] = system: giant foxtail (Setaria faberii); test: Test C postemergence; conditions: Setaria faberi, post-emergence, 336 h, Postemergence, scale 0 to 100, read-out: Plant response rating, Foxtail, Giant
Method in brief: as §3

[10] = system: johnsongrass (Sorghum halepense); test: Test C postemergence; conditions: Sorghum halepense, post-emergence, 336 h, Postemergence, scale 0 to 100, read-out: Plant response rating, Johnsongrass
Method in brief: as §3

[11] = system: lambsquarters (Chenopodium album); test: Test C postemergence; conditions: Chenopodium album, post-emergence, 336 h, Postemergence, scale 0 to 100, read-out: Plant response rating, Lambsquarters
Method in brief: as §3

[12] = system: large (Lg) crabgrass (Digitaria sanguinalis); test: Test C postemergence; conditions: Digitaria sanguinalis, post-emergence, 336 h, Postemergence, scale 0 to 100, read-out: Plant response rating, Crabgrass, Large
Method in brief: as §3

[13] = system: morningglory (Ipomoea coccinea); test: Test C postemergence; conditions: Ipomoea, post-emergence, 336 h, Postemergence, scale 0 to 100, read-out: Plant response rating, Morningglory
Method in brief: as §3

[14] = system: oilseed rape (Brassica napus); test: Test C postemergence; conditions: Brassica napus, post-emergence, Postemergence, scale 0 to 100, read-out: Plant response rating, Oilseed Rape
Method in brief: as §3

[15] = system: ragweed (common ragweed, Ambrosia elatior); test: Test C postemergence; conditions: Ambrosia artemisiifolia, post-emergence, 336 h, Postemergence, scale 0 to 100, read-out: Plant response rating, Ragweed
Method in brief: as §3

soybean (Glycine max) = test: Test C postemergence; conditions: Glycine max, post-emergence, Postemergence, scale 0 to 100, read-out: Plant response rating, Soybean
Method in brief: as §3

[16] = system: velvetleaf (Abutilon theophrasti); test: Test C postemergence; conditions: Abutilon theophrasti, post-emergence, Postemergence, scale 0 to 100, read-out: Plant response rating, Velvetleaf
Method in brief: as §3

[17] = system: waterhemp (common waterhemp, Amaranthus rudis); test: Test C postemergence; conditions: Amaranthus tuberculatus, post-emergence, Postemergence, scale 0 to 100, read-out: Plant response rating, Waterhemp
Method in brief: as §3

wild oat (Avena fatua) = test: Test C postemergence; conditions: Avena fatua, post-emergence, Postemergence, scale 0 to 100, read-out: Plant response rating, Oat, Wild
Method in brief: as §3

[18] = system: winter wheat (Triticum aestivum); test: Test C postemergence; conditions: Triticum aestivum, post-emergence, 336 h, Postemergence, scale 0 to 100, read-out: Plant response rating, Wheat
Method in brief: as §3

[19] = system: yellow nutsedge (Cyperus esculentus); test: Test C postemergence; conditions: Cyperus, post-emergence, 336 h, Postemergence, scale 0 to 100, read-out: Plant response rating, Nutsedge, Yellow
Method in brief: as §3

`N#Cc1cccc(Oc2ncc(Cl)cn2)c1Oc1ncc(Cl)cn1` [Compound 3, 2,3-bis[(5-chloro-2-pyrimidinyl)oxy]benzonitrile] gave a pest or weed control at 31 g/ha ([1]; 31 g ai/ha) of 80%, a pest or weed control at 62 g/ha ([1]; 62 g ai/ha) of 100% and a pest or weed control at 125 g/ha ([1]; 125 g ai/ha) of 100%. For the same compound, the pest or weed control at 250 g/ha ([1]; 250 g ai/ha) was 100%, the pest or weed control at 31 g/ha ([2]; 31 g ai/ha) was 90% and the pest or weed control at 62 g/ha ([2]; 62 g ai/ha) was 90%. For the same compound, the pest or weed control at 125 g/ha ([2]; 125 g ai/ha) was 90%, the pest or weed control at 31 g/ha ([3]; 31 g ai/ha) was 45% and the pest or weed control at 62 g/ha ([3]; 62 g ai/ha) was 75%. It also gave a pest or weed control at 125 g/ha ([3]; 125 g ai/ha) of 100%, a pest or weed control at 31 g/ha ([4]; 31 g ai/ha) of 5% and a pest or weed control at 62 g/ha ([4]; 62 g ai/ha) of 5%. It also gave a pest or weed control at 125 g/ha ([4]; 125 g ai/ha) of 5%, a pest or weed control at 250 g/ha ([4]; 250 g ai/ha) of 35% and a pest or weed control at 31 g/ha ([5]; 31 g ai/ha) of 5%. It also gave a pest or weed control at 62 g/ha ([5]; 62 g ai/ha) of 10%, a pest or weed control at 125 g/ha ([5]; 125 g ai/ha) of 20% and a pest or weed control at 250 g/ha ([5]; 250 g ai/ha) of 60%. For the same compound, the pest or weed control at 31 g/ha ([6]; 31 g ai/ha) was 20%, the pest or weed control at 62 g/ha ([6]; 62 g ai/ha) was 20% and the pest or weed control at 125 g/ha ([6]; 125 g ai/ha) was 30%. For the same compound, the pest or weed control at 250 g/ha ([6]; 250 g ai/ha) was 30%, the pest or weed control at 31 g/ha ([7]; 31 g ai/ha) was 50% and the pest or weed control at 62 g/ha ([7]; 62 g ai/ha) was 85%. For the same compound, the pest or weed control at 125 g/ha ([7]; 125 g ai/ha) was 90%, the pest or weed control at 250 g/ha ([7]; 250 g ai/ha) was 95% and the Corn plant response rating (crop injury, 0 = no effect, 100 = complete kill) at 31 g/ha (corn (Zea mays); 31 g ai/ha) was 10%. The Corn plant response rating (crop injury, 0 = no effect, 100 = complete kill) at 62 g/ha (corn (Zea mays); 62 g ai/ha) was 35%, the Corn plant response rating (crop injury, 0 = no effect, 100 = complete kill) at 250 g/ha (corn (Zea mays); 250 g ai/ha) was 75% and the pest or weed control at 31 g/ha ([8]; 31 g ai/ha) was 50%. It also gave a pest or weed control at 62 g/ha ([8]; 62 g ai/ha) of 70%, a pest or weed control at 125 g/ha ([8]; 125 g ai/ha) of 95% and a pest or weed control at 250 g/ha ([8]; 250 g ai/ha) of 95%. The pest or weed control at 31 g/ha ([9]; 31 g ai/ha) was 5%, the pest or weed control at 62 g/ha ([9]; 62 g ai/ha) was 15% and the pest or weed control at 125 g/ha ([9]; 125 g ai/ha) was 15%. For the same compound, the pest or weed control at 250 g/ha ([9]; 250 g ai/ha) was 60%, the pest or weed control at 31 g/ha ([10]; 31 g ai/ha) was 15% and the pest or weed control at 62 g/ha ([10]; 62 g ai/ha) was 15%. It also gave a pest or weed control at 125 g/ha ([10]; 125 g ai/ha) of 15%, a pest or weed control at 250 g/ha ([10]; 250 g ai/ha) of 50% and a pest or weed control at 31 g/ha ([11]; 31 g ai/ha) of 85%. The pest or weed control at 62 g/ha ([11]; 62 g ai/ha) was 95%, the pest or weed control at 125 g/ha ([11]; 125 g ai/ha) was 95% and the pest or weed control at 250 g/ha ([11]; 250 g ai/ha) was 100%. The pest or weed control at 31 g/ha ([12]; 31 g ai/ha) was 10%, the pest or weed control at 62 g/ha ([12]; 62 g ai/ha) was 10% and the pest or weed control at 125 g/ha ([12]; 125 g ai/ha) was 15%. For the same compound, the pest or weed control at 250 g/ha ([12]; 250 g ai/ha) was 85%, the pest or weed control at 31 g/ha ([13]; 31 g ai/ha) was 85% and the pest or weed control at 62 g/ha ([13]; 62 g ai/ha) was 90%. It also gave a pest or weed control at 125 g/ha ([13]; 125 g ai/ha) of 90%, a pest or weed control at 250 g/ha ([13]; 250 g ai/ha) of 98% and a plant injury at 31 g/ha ([14]; 31 g ai/ha) of 50%. For the same compound, the plant injury at 62 g/ha ([14]; 62 g ai/ha) was 60%, the plant injury at 125 g/ha ([14]; 125 g ai/ha) was 70% and the plant injury at 250 g/ha ([14]; 250 g ai/ha) was 85%. For the same compound, the pest or weed control at 31 g/ha ([15]; 31 g ai/ha) was 50%, the pest or weed control at 62 g/ha ([15]; 62 g ai/ha) was 55% and the pest or weed control at 125 g/ha ([15]; 125 g ai/ha) was 60%. For the same compound, the pest or weed control at 250 g/ha ([15]; 250 g ai/ha) was 85%, the plant injury at 31 g/ha (soybean (Glycine max); 31 g ai/ha) was 85% and the plant injury at 62 g/ha (soybean (Glycine max); 62 g ai/ha) was 90%. The plant injury at 125 g/ha (soybean (Glycine max); 125 g ai/ha) was 95%, the plant injury at 250 g/ha (soybean (Glycine max); 250 g ai/ha) was 95% and the pest or weed control at 31 g/ha ([16]; 31 g ai/ha) was 35%. It also gave a pest or weed control at 62 g/ha ([16]; 62 g ai/ha) of 70%, a pest or weed control at 125 g/ha ([16]; 125 g ai/ha) of 70% and a pest or weed control at 250 g/ha ([16]; 250 g ai/ha) of 80%. It also gave a pest or weed control at 31 g/ha ([17]; 31 g ai/ha) of 75%, a pest or weed control at 62 g/ha ([17]; 62 g ai/ha) of 75% and a pest or weed control at 125 g/ha ([17]; 125 g ai/ha) of 85%. The pest or weed control at 250 g/ha ([17]; 250 g ai/ha) was 98%, the pest or weed control at 31 g/ha (wild oat (Avena fatua); 31 g ai/ha) was 15% and the pest or weed control at 62 g/ha (wild oat (Avena fatua); 62 g ai/ha) was 30%. It also gave a pest or weed control at 125 g/ha (wild oat (Avena fatua); 125 g ai/ha) of 35%, a pest or weed control at 250 g/ha (wild oat (Avena fatua); 250 g ai/ha) of 35% and a plant injury at 31 g/ha ([18]; 31 g ai/ha) of 0%. It also gave a plant injury at 62 g/ha ([18]; 62 g ai/ha) of 0%, a plant injury at 125 g/ha ([18]; 125 g ai/ha) of 10% and a plant injury at 250 g/ha ([18]; 250 g ai/ha) of 15%. The pest or weed control at 31 g/ha ([19]; 31 g ai/ha) was 0%, the pest or weed control at 62 g/ha ([19]; 62 g ai/ha) was 0% and the pest or weed control at 125 g/ha ([19]; 125 g ai/ha) was 5%. For the same compound, the pest or weed control at 250 g/ha ([19]; 250 g ai/ha) was 35%.

Source: patent publication US20170190671A1, “BIS(ARYL)CATECHOL DERIVATIVES AS HERBICIDES” (E I DU PONT DE NEMOURS AND COMPANY, priority 2014, published 2017)
